The source of these data is patent US5866570A, “Treatment of vascular leakage and related syndrome such as septic shock by administration of metalloproteinase inhibitors” (Wisconsin Alumni Research Foundation, priority 1994, dated 1999).

The test system of data set [1] is metastases. Particulars: in vivo; cited from earlier work.
Data set [2] relates to B16-F10 melanoma cells. Particulars: pretreatment of B16-F10 cells at 2, 20 and 100 μM; cited from earlier work.
Data set [3] deals with HT-1080 cells (human fibrosarcoma). Put plainly: in vitro invasion assay through matrigel (Transwell). It is filed as cell-based. On the procedure: (§1) Razoxane, various bis(hydroxylated)(2,6-dioxopiperazine)s, and various hydrophobic analogs were tested in an in vitro assay for inhibition of tumor cell penetration of a reconstituted basement membrane, matrigel, isolated from the Englegbreth-Holm-Swarm (EHS) tumor (disclosed in Kleinman et al., Biochem. (1982), 24, 6188-6193) first described by Albini et al, Cancer Res. (1987) 47, 3234-3245. An 8 μm pore filter coated with matrigel separates a lower compartment containing a chemoattractant and an upper compartment containing the cells and test compound. In particular, the following compounds were tested: razoxane, (1α, 2α, 4α, 5α)-4,4'-(4,5-dihydroxy-1,2-cyclohexanediyl)bis(2,6-piperazinedione); (1α, 2α, 4β, 5β)-4,4'-(4,5-dihydroxy-1,2-cyclohexanediyl)bis(2,6-piperazinedione);(1β, 2α,4α,5α)-4,4'-(4,5-dihydroxy-1,2-cyclohexanediyl)bis(2,6-piperazinedione); (1β, 2α, 4α,5β)-4,4'-(4,5-dihydroxy-1,2-cyclohexanediyl)bis(2,6piperazinedione); (1α, 2β, 4α,5β)-4,4'-(4,5-dihydroxy-1,2cyclohexanediyl)bis(2,6-piperazinedione); N,N'-cyclohexane-1,2-diylbis[N(2-ethoxy-2-oxoethyl)]glycine; N,N'-4-cyclohexene-1,2-diylbis[N-(2-ethoxy-2-oxoethyl)-glycine ester; (3aα, 5β, 6β, 7aα)-4,4'-(hexahydro-2,2-dimethyl1,3-benzodioxole-5,6-diyl)bis(2,6-piperazinedione); (3aα, 5α, 6α, 7aα)-4,4'-(hexahydro-2,2-dimethyl-1,3-benzodioxole-5,6-diyl)bis(2,6- piperazinedione); (3aα, 5α, 6β, 7aα)-4,4'-(hexahydro-2,2-dimethyl-1,3-benzodioxole-5,6-diyl)bis-2,6- piperazinedione; (3aα, 5β, 6α, 7aβ)-4,4'-(hexahydro-2,2dimethyl-1,3-benzodioxole-5,6-diyl)bis(2,6-piperazinedione); and (3aα, 5α, 6β, 7aβ)-4,4'-(hexahydro-2,2-dimethyl-1,3-benzodioxole-5,6-diyl) bis(2,6piperazinedione). Metastatic cells are able to degrade the basement membrane protein barrier and migrate through the pores of the filter whereas non-metastatic cells remain on the upper surface. The cells that pass to the under side of the filter are then counted under a microscope. […] Variations of this assay have been used to correlate this in vitro invasion with metastatic potential in vivo (Albini et al. (Id.); Hendrix et al. Cancer Letters (1987); 38, 127-247; Repesh L. A., Invasion Metastasis (1989) 9, 192-208 to select for more highly invasive cells (Teranova et al., Proc. Nat. Acad. Sci., (1986), 83, 465, 464; Tullberg et al., Invasion Metastasis, (1989), 9, 13-26; Sefer et al., Biotechniques, (1990), 9, 324-331), and to test compounds for inhibition (Nakajima et al., Cancer Res. (1989), 49, 1698-1756).
(§2) This method has been improved to increase the number of assays which may be performed and analyzed per day. In particular, such improvement comprises the use of disposable Transwells (Costar) units described by Repesh et al., Invasion Metastasis, (1989), 9, 192-208, which consist of an 8 μm pore filter attached to an insert that fits in a 24 well culture plate. Matrigel concentration is titrated from zero to complete inhibition of motility of each invasive cell line used in the assay and for each batch of matrigel. The matrigel concentration which yields 50% or greater inhibition of motility in a 6 hr assay (usually from 15 to 50 μg of protein per filter) is chosen for determination of invasion. Motility of cells through the 8 μm filters is not by passive diffusion since the pore size is smaller than the cells, and is determined in the same chamber in the absence of matrigel. Motility is stimulated two-fold by the presence of fibroblast conditioned medium (3T3 cells) as a chemoattractant (data not shown). The cell lines used are HT-1080, a human fibrosarcoma, and MDA-MB-231, a human breast carcinoma (both available from the American Type Tissue Culture). These cell lines express both the 72 kD and the 92 kD collagenase type IV as determined by zymography (data not shown).
(§3) For inhibition studies, 5×10^5 cells are plated in 200 μl of DMEM+0.1% BSA+the inhibitor (or appropriate solvent control) into the upper chamber of the Transwell. […]

The test system of data set [4] is MDA-MB-231 cells (human breast carcinoma). The description is as above. As to conditions: preliminary screen. It is filed as cell-based. On the procedure:
as §1, §2, §3

Data set [5] deals with T1, E. coli recombinant human 72 kD collagenase type IV (MMP-2), pAPMA activated (Homo sapiens, UniProt P08253).
T1 construct: made in house; host or cells: E. coli
T1 sequence (P08253 110-660): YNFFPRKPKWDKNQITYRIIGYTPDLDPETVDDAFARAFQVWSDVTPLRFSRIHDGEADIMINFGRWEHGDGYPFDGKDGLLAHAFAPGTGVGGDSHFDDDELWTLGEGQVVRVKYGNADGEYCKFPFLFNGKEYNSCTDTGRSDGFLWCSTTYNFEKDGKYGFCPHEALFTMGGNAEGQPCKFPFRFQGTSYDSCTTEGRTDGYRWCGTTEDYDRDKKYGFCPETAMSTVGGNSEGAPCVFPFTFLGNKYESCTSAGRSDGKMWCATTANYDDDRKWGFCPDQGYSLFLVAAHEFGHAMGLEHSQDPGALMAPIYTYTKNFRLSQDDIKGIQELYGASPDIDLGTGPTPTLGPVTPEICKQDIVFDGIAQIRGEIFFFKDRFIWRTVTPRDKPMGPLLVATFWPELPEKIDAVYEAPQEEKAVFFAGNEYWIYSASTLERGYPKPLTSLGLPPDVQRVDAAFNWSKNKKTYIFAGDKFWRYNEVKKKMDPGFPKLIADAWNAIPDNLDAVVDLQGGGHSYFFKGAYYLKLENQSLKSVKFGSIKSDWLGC
The data set can be described thus: gelatinase assay (3H-gelatin degradation), Example 9. It is filed as biochemical. As to conditions: 100 ng activated enzyme, 4 hrs preincubation with inhibitor at 37° C., 3H-gelatin substrate; read-out: IC50, inhibition of collagenase type IV gelatinase activity. From the text: Type IV collagenases are highly efficient in digesting gelatin. Inhibition of the gelatinase activity of human recombinant collagenase type IV was used as an initial assay for testing the bis(dioxopiperazine)s. The recombinant 72 kD collagenase IV used in the gelatinase assays was made in E. coli from a cDNA insert obtained from Dr. William Stetler-Stevenson (NCI). The protein runs at 72 kD on SDS-PAGE, has gelatinolytic activity in zymogram, is activated by pAPMA, is precipitated by a monoclonal anti-peptide antibody to the pro-region of the 72 kD enzyme, and is inhibited by TIMP-2. Rat tail ^3 H-collagen I (Dupont-NEN) is denatured to become gelatin by heating at 60° C. for 20 min. E. coli recombinant human 72 kD collagenase type IV is activated by incubation with 1 mM pAPMA for 1 hr. at 37° C. 100 ng of activated enzyme is added to each tube containing 50 mM Tris-HCl pH 7.5, 5 mM CaCl2 and 0.005% Brij-35 and pre-incubated with inhibitor or solvent control for 4 hrs. at 37° C. in a total of 25 μl. 10,000 cpm of ^3 H-gelatin substrate in 30 μl is added (final volume of 55 μl per sample) and the reaction mixture is incubated at 37° C. for 2 to 16 hrs. […] Enzyme activity is calculated from the radioactivity in the supernatant and activity of the compounds expressed as percent solvent control.

Data set [6] concerns V-79A fibroblasts. Particulars: tissue culture; cited from earlier work.

Take `O=C1CN([C@@H]2C[C@@H]2N2CC(=O)NC(=O)C2)CC(=O)N1` [cis-16, cis-4,4'-(cyclopropanediyl) bis(2,6)dioxopiperazine]: the “effect on development of metastases” value in data set [1] is “inhibits”.
As to `O=C1CN2CCN3CC(=O)NC(=O)[C@H]3[C@H]2C(=O)N1` [cis-21], the “metastasis to the lungs after pretreatment of the cells” value in data set [2] is listed as “ineffective”.
Broadly, the inhibition is the change of the read-out against control, counted positive when it falls. For orientation: IC50 means the concentration that gives 50% inhibition. For the compound `CC1(C)O[C@H]2C[C@@H](N3CC(=O)NC(=O)C3)[C@H](N3CC(=O)NC(=O)C3)C[C@H]2O1` (relative stereo) [Compound 78], the inhibition at 290 µM in data set [3] (Homo sapiens, HT-1080, at 290 μM, 6 hour assay, read-out: maximum inhibition of invasion) stood at 25%. Moreover, the inhibition of invasion entry in data set [3] (preliminary screen) and in data set [4] was “inhibit invasion” in each case. Further, the “effect on cell motility” value in data set [3] (preliminary screen, no matrigel) is “without inhibiting cell motility”; in data set [4] (no matrigel), “without inhibiting cell motility”. In data set [5], the IC50 is 45 µM.
As to `O=C1CN([C@@H]2C[C@H]2N2CC(=O)NC(=O)C2)CC(=O)N1` (relative stereo) [trans-15], the cytotoxic activity entry in data set [6] was “inactive”. The “effect on development of metastases” value in data set [1] was “stimulates”.
Regarding `O=C1CN2CCN3CC(=O)NC(=O)[C@H]3[C@@H]2C(=O)N1` (relative stereo) [trans-20], the “metastasis to the lungs after pretreatment of the cells” value in data set [2] is reported as “significantly reduces the metastasis”.
